In US7524503B2, “Human cytomegalovirus (HCMV) cytotoxic T cell epitopes, polyepitopes compositions comprising same and diagnostic and prophylactic and therapeutic uses therefor” (priority 2001, dated 2009):
“And” between values parts separate entries of the source, which are not always exact repeats. Equal entries are not always repeated. Where two headings read alike, the source gives them in different places.

Assays:
Format in all cases: cell-based, human
[1] = test system: peptide-sensitized autologous PHA blasts or LCLs; parameters: key to CTL response: Y: Yes; ND: Not detected
[2] = test system: PBMC from healthy HCMV seropositive donors; test: IFN-γ ELISPOT assay; conditions: for ELISPOT Responses (SFC/10^6 PBMC): peptide 10 μg/ml
Procedure: ELISPOT assay was used to assess whether stimulation of PBMC from a large panel of seropositive donors with HCMV peptides could induce IFN-γ expression in T cells. Briefly, a 96-well nitrocellulose plate (Multiscreen, Millipore) was coated overnight at 4° C. with mouse monoclonal antibody anti-IFN-γ IgG1 (10 μg/ml; Mabtech Nacka, Sweden). The plate was then washed six times in Phosphate Buffered Saline (PBS) and blocked for 1 hour at 37° C. with PBS supplemented with 5% FCS. The blocking solution was removed and PBMC from healthy HCMV seropositive donors were added at a concentration of 2.5×10^5 cells per well in growth medium. These cells were incubated for 18 h at 37° C. in a 5% CO2 atmosphere in the presence of synthetic peptides from HCMV antigens (10 μg/ml). After incubation, the plate was washed three times with PBS supplemented with 0.05% Tween, followed by three washes with PBS alone. Biotinylated anti-IFN-γ (Mabtech, Nacka Sweden) detection antibody was added to each well at a final concentration of 1 μg/ml in PBS. The plates were incubated at room temperature in the dark for 4 h and then washed, as described above. Streptavidin-Alkaline phosphatase (Sigma) was added to each well at a final concentration of 1 μg/ml in PBS and incubated at room temperature in the dark for 2 h. After a final wash with PBS, the substrate, 5-bromo-4-chloro-3-indolyl phosphate and nitro blue tetrazolium, was added to each well and the plates incubated for 30 min at RT. Cells that produced IFN-γ in response to the presence of peptide were detected as purple spots on the nitrocellulose membrane of each well. The spots were counted automatically using a closed-circuit camera (CCD) and ImagePro image analysis software or automated ELISPOT reader (AID, Germany). The T cell precursor frequency for each peptide was based on the total number of PBMC in the well and the number of peptide-specific spots per well, over an average of 3 wells. The number of peptide-specific spots was also calculated by subtracting the negative control values, which consisted of PBMC without peptide (an average of 3 wells), from the test wells.
To determine whether memory CTL responses against the predictive HCMV potential epitopes could be detected in healthy seropositive virus carriers, we used the ELISPOT assay, which allows rapid identification of CTL epitopes without prolonged in vitro culture.
We tested epitopes that were restricted for HLA A1, A3, A24, A26, B7, B8, B27, B35 and B44 in ELISPOT assays, to determine whether memory T cell responses could be detected in healthy HLA-matched virus carriers. PBMC from a cohort of healthy virus carriers (Table 2) were stimulated with individual peptides and the cells that produced IFN-γ were detected. CTL epitopes that were restricted through either HLA A1, A3, A24, A26, B7, B8 or B27, were identified.
Thus, a total of 450 peptides were produced. ELISPOT assays were used to determine whether ex vivo memory T cell responses could be detected in a cohort of 14 healthy virus carriers (Table 2). PBMC were stimulated with individual peptides and the cells that produced IFN-γ were detected.

CD4+ T cells = test: CD4+/CD8+ analysis of 20-mer peptides (intracellular IFN-γ staining or depletion ELISPOT)
Procedure: (§1) To determine whether a particular 20-mer peptide contained either a CD4^+- or CD8^+-restricted epitope, or both, CD4^+/CD8^+ cell depletion ELISPOT assays were performed on PBMC from healthy virus carriers. For any one experiment, three populations of cells were used: a) CD8^+-depleted PBMC, b) CD4^+-depleted PBMC, and c) non-depleted PBMC. These populations of cells were tested concurrently with the same peptides in a conventional ELISPOT assay as described herein above. DYNABEADS M-450 (Dynal, Oslo, Norway) that bound specifically to CD4^+- or CD8^+ cells were used to perform the depletion essentially according to manufacturers instructions. Beads were washed twice in cold PBS supplemented with 2% FCS using magnetic isolation. The requisite number of cells was resuspended in cold PBS supplemented with 2% FCS, added to the beads and then incubated at 4° C., in the dark, for 30 mins (CD8^+ beads) or 60 mins (CD4^+ beads). Populations were depleted of CD4^+ or CD8^+ cells using magnetic separation. After depletion, the non-attached cells were removed and washed once in growth medium, counted and used in conventional ELISPOT assay. Depleted cells were used at 1.7×10^5 cells per well and the non-depleted population was used at the standard 2.5×10^5 cells per well. After the depletion step, each respective cell population was assessed for the purity of CD4^+ and CD8^+ T cells by three-colour flow cytometry. Samples of depleted cell populations were stained with anti-CD3 antibody directly conjugated to fluorescein isothiocyanate (FITC), anti-CD4 antibody conjugated with phycoerythrin (PE) fluorochrome, and anti-CD8 antibody conjugated with Tricolor fluorochrome (described below). The percent of CD3^+/CD4^+ cells present within the CD8^+-depleted population and the percent of CD3^+/CD8^+ cells present within the CD4^+-depleted populations were assessed on FACSCalibur cytometer (Becton Dickinson). The purity of each population was greater than 90% and the results from the ELISPOT assays are expressed as the percentage of CD4+ or CD8^+ cells within the depleted populations that responded toward each peptide by producing IFN-γ.
(§2) PBMCs were incubated at 37° C. in RPMI+10% FCS with and without 10 μg/ml peptides for 6 hours. Golgiplug™ (Pharmingen, San Diego, Calif., USA) was added to the samples according to manufacturer's instructions during the second hour of incubation and cells activated with 25 ng/ml phorbol 12-myristidate 13-acetate (PMA; Sigma-Aldrich Co, St. Louis Mo.) and 1 μg/ml iomomycin (Sigma) acted as a positive control. Following the incubation, 1×10^6 cells/sample were washed and resuspended in staining buffer consisting of PBS with GolgiPlug™, 3% FCS and sodium azide. Cells were then stained with FITC conjugated anti-CD3-FITC (UCHT1, Immunotech, Marseille, France), and either Tricolor (TRI) conjugated anti-CD4 (S3.5, Caltag, Burlingame, Calif.) or anti-CD8 (3B5, Caltag) for 30 minutes, 4° C. in the dark. The cells were fixed for 20 min at 4° C. with Cytofix/Cytoperm™ (BD Biosciences) and resuspended in Perm/Wash™ permeabilization buffer (BD Biosciences) according to manufacturers protocol. Fixed cells were stained with phycoerythrin (PE) conjugated anti-human IFN-γ (B27, Pharmingen) for 30 min at 4° C. in the dark. As a negative control, cells were stained with appropriate isotype matched control antibodies. Cells were washed twice in permeabilization buffer and resuspended in staining buffer before analysis by three-colour flow cytometry on a FACSCalibur cytometer (BD Biosciences). All data analysis was carried out using FlowJo software (Tree Star, Inc. San Carlos, CA).
(§3) When using 20-mer peptides to map epitopes by ELISPOT, it is possible that some responses may be MHC class-II restricted, and not necessarily restricted through HLA class I alleles. It was evident throughout this study that some epitopes identified using ELISPOT could not be confirmed using cytotoxicity analysis. […]

CD8+ T cells = test: as above
Procedure: as §1, §2, §3

[3] = overlapping 20mer peptides, Table 4

## NLVPMVATV [reference compound]
[1]; predicted epitopes, Table 3
  CTL response: Y
[2]; cohort of eight HLA A2-positive healthy seropositive donors
  donors recognizing the epitope in ELISPOT: recognized by every donor tested
[2]; donor delta
  ELISPOT Responses (SFC/10^6 PBMC): 170 SFC/10^6 PBMC
[2]; donor fifteen
  ELISPOT Responses (SFC/10^6 PBMC): 356 SFC/10^6 PBMC and 671 SFC/10^6 PBMC
[2]; donor one
  ELISPOT Responses (SFC/10^6 PBMC): 1201 SFC/10^6 PBMC
[2]; donor seven
  ELISPOT Responses (SFC/10^6 PBMC): 1202 SFC/10^6 PBMC
[2]; donor seventeen
  ELISPOT Responses (SFC/10^6 PBMC): 271 SFC/10^6 PBMC
[2]; donor six
  ELISPOT Responses (SFC/10^6 PBMC): 1195 SFC/10^6 PBMC
[2]; donor thirteen
  ELISPOT Responses (SFC/10^6 PBMC): 161 SFC/10^6 PBMC

## QEFFWDANDIYRIFAELEGV
[1]; [3]
  CTL response: Y
[2]; donor epsilon
  ELISPOT Responses (SFC/10^6 PBMC): SC(704) SFC/10^6 PBMC
[2]; donor five
  ELISPOT Responses (SFC/10^6 PBMC): CS(107) SFC/10^6 PBMC
[2]; donor gamma
  ELISPOT Responses (SFC/10^6 PBMC): 295 SFC/10^6 PBMC
[2]; donor twelve
  ELISPOT Responses (SFC/10^6 PBMC): 30 SFC/10^6 PBMC

## QPFMRPHERNGFTVLCPKNM
CD4+ T cells; donor two
  Responding cells (% CD4): 0.05%
CD8+ T cells; donor two
  Responding cells (% CD8): 0%
[2]; donor delta
  ELISPOT Responses (SFC/10^6 PBMC): SE(783) SFC/10^6 PBMC

## SDSESESEEMKCSSGGGASV (human cytomegalovirus IE2 CTL epitope peptide)
CD4+ T cells; donor sixteen
  Responding cells (% CD4): 0.01%
CD8+ T cells; donor sixteen
  Responding cells (% CD8): 0.22%
[2]; donor sixteen
  ELISPOT Responses (SFC/10^6 PBMC): TC(147) SFC/10^6 PBMC

## SEPVSEIEEVAPEEEEDGAE (human cytomegalovirus IE1 CTL epitope peptide)
CD4+ T cells; donor delta
  Responding cells (% CD4): 0%
CD8+ T cells; donor delta
  Responding cells (% CD8): 0.097%
[2]; donor delta
  ELISPOT Responses (SFC/10^6 PBMC): SE(200) SFC/10^6 PBMC

## SSSSSSCSSASDSESESEEM (human cytomegalovirus IE2 CTL epitope peptide)
CD4+ T cells; donor eight
  Responding cells (% CD4): 0%
CD4+ T cells; donor sixteen
  Responding cells (% CD4): 0%
CD8+ T cells; donor eight
  Responding cells (% CD8): 0.01%
CD8+ T cells; donor sixteen
  Responding cells (% CD8): 0.05%
[2]; donor eight
  ELISPOT Responses (SFC/10^6 PBMC): 125 SFC/10^6 PBMC
[2]; donor sixteen
  ELISPOT Responses (SFC/10^6 PBMC): 93 SFC/10^6 PBMC

## TGGGAMAGASTSAGRKRKSA
CD4+ T cells; donor eight
  Responding cells (% CD4): JW(0.01/0.01) %
CD8+ T cells; donor eight
  Responding cells (% CD8): JW(0.01/0.01) %
[2]; donor eight
  ELISPOT Responses (SFC/10^6 PBMC): JW(441) SFC/10^6 PBMC

## TGPRKKKSKRISELDNEKVR
CD4+ T cells; donor seven
  Responding cells (% CD4): SB(0.02/0.02) %
CD8+ T cells; donor seven
  Responding cells (% CD8): SB(0.02/0.02) %
[2]; donor delta
  ELISPOT Responses (SFC/10^6 PBMC): 162 SFC/10^6 PBMC
[2]; donor seven
  ELISPOT Responses (SFC/10^6 PBMC): 148 SFC/10^6 PBMC

## TRATKMQVIGDQYVKVYLES
CD4+ T cells; donor seven
  Responding cells (% CD4): 0.09%
CD8+ T cells; donor seven
  Responding cells (% CD8): 0.01%
[2]; donor alpha
  ELISPOT Responses (SFC/10^6 PBMC): 139 SFC/10^6 PBMC
[2]; donor seven
  ELISPOT Responses (SFC/10^6 PBMC): 346 SFC/10^6 PBMC

## VKSEVDAVRCRLGTMCNLAL
CD4+ T cells; donor delta
  Responding cells (% CD4): 0%
CD8+ T cells; donor delta
  Responding cells (% CD8): 0.06%
[2]; donor delta
  ELISPOT Responses (SFC/10^6 PBMC): 253 SFC/10^6 PBMC
[2]; donor seven
  ELISPOT Responses (SFC/10^6 PBMC): 320 SFC/10^6 PBMC

## VLCCYVLEETSVMLAKRPLI (human cytomegalovirus IE1 CTL epitope peptide)
[1]; [3]
  CTL response: Y
[2]; donor seven
  ELISPOT Responses (SFC/10^6 PBMC): SB(2171) SFC/10^6 PBMC

## VTTERKTPRVTGGGAMAGAS
CD4+ T cells; donor eight
  Responding cells (% CD4): 0.17%
CD8+ T cells; donor eight
  Responding cells (% CD8): 0.24%
[2]; donor eight
  ELISPOT Responses (SFC/10^6 PBMC): 285 SFC/10^6 PBMC
[2]; donor epsilon
  ELISPOT Responses (SFC/10^6 PBMC): 322 SFC/10^6 PBMC
[2]; donor two
  ELISPOT Responses (SFC/10^6 PBMC): JD(319) SFC/10^6 PBMC
